Data taken from patent publication EP4667467A1, “PROTAC DEGRADERS OF MLLT1 AND/OR MLLT3” (Dark Blue Therapeutics Ltd, priority 2024, dated 2025).

Molecular target: T1, MLLT1 (Homo sapiens, UniProt Q03111)
T1 construct: endogenous in cells; host or cells: MV4-11 (ATCC CRL-9591)
T1 sequence (Q03111 1-559): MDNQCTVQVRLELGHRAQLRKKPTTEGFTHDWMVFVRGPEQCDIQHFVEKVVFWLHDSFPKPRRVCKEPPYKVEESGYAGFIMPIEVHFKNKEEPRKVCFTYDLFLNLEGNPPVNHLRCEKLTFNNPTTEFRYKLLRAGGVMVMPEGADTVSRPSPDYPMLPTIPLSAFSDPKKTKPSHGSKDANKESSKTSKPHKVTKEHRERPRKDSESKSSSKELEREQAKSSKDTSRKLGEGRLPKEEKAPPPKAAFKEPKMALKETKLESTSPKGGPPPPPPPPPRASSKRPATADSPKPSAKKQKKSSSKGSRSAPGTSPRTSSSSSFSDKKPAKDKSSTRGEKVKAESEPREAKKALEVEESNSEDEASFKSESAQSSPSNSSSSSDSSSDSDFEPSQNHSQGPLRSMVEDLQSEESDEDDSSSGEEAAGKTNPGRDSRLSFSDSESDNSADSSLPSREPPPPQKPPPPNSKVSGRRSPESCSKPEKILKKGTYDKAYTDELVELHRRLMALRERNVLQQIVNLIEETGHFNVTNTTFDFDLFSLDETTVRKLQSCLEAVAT
Assay: MLLT1 Degradation Assay (JESS automated chemiluminescent detection, MV4-11 cells)
Type: cell-based
Conditions: 24h, with respect to DMSO control; for MLLT1 % Degradation @ 0.01 µM: 0.01 µM (10 nM) test compound; for MLLT1 % Degradation @ 0.1 µM: 0.1 µM (100 nM) test compound; for MLLT 1 % Degradation @ 1 µM: 1 µM (1000 nM) test compound
Experimental: MLLT1 degradation efficacy of compounds were tested in an automated chemiluminescent detection system (JESS, Cat# 004-650). […] 10 mM DMSO stocks were prepared, and cells were treated with three concentrations of test compounds viz. 1000, 100 and 10 nM at a final DMSO concentration of 0.1% and incubated for 24h at 37°C, 5% CO2. […] Post run, data were analysed using "Compass for SW" software for chemiluminescent detection. The peak area for each band was used for the calculation of MLLT1 degradation with respect to DMSO control. Data is shown as "MLLT1 % degradation".

| Compound | MLLT1 % Degradation @ 0.01 µM | MLLT1 % Degradation @ 0.1 µM | MLLT 1 % Degradation @ 1 µM |
| --- | --- | --- | --- |
| CN1CCC[C@@H]1c1cc2cnc(NC(=O)c3ccc(N4CCN(CC#Cc5cccc6c5CN(C5CCC(=O)NC5=O)C6=O)CC4)nc3)cc2[nH]1 (stereo partly drawn) [Example 6, 6-(4-(3-(2-(2,6-dioxopiperidin-3-yl)-1-oxoisoindolin-4-yl)prop-2-yn-1-yl)piperazin-1-yl)-N-(2-((R)-1-methylpyrrolidin-2-yl)-1H-pyrrolo[3,2-c]pyridin-6-yl)nicotinamide] | A (Category A: A ≥ 75% degradation) | A (Category A: A ≥ 75% degradation) | B (Category B: 50% ≤ B < 75% degradation) |
| CN1CCC[C@@H]1c1cc2cnc(NC(=O)c3ccc(CCCC#Cc4cccc5c4CN(C4CCC(=O)NC4=O)C5=O)cc3)cc2[nH]1 (stereo partly drawn) [Example 55, 4-(5-(2-(2,6-dioxopiperidin-3-yl)-1-oxoisoindolin-4-yl)pent-4-yn-1-yl)-N-(2-((R)-1-methylpyrrolidin-2-yl)-1H-pyrrolo[3,2-c]pyridin-6-yl)benzamide] | A (Category A: A ≥ 75% degradation) | A (Category A: A ≥ 75% degradation) | A (Category A: A ≥ 75% degradation) |
| CN1CCC[C@@H]1c1cc2cnc(NC(=O)c3ccc(OCC#Cc4cccc5c4CN(C4CCC(=O)NC4=O)C5=O)c(Cl)c3)cc2[nH]1 (stereo partly drawn) [Example 23, 3-chloro-4-((3-(2-(2,6-dioxopiperidin-3-yl)-1-oxoisoindolin-4-yl)prop-2-yn-1-yl)oxy)-N-(2-((R)-1-methylpyrrolidin-2-yl)-1H-pyrrolo[3,2-c]pyridin-6-yl)benzamide] | C (Category C: 25% ≤ C < 50% degradation) | C (Category C: 25% ≤ C < 50% degradation) | C (Category C: 25% ≤ C < 50% degradation) |
| CN1CCC[C@@H]1c1cc2cnc(NC(=O)CCCC3CCCN(c4cccc5c4C(=O)N(C4CCC(=O)NC4=O)C5=O)C3)cc2[nH]1 (stereo partly drawn) [Example 44, 4-(1-(2-(2,6-dioxopiperidin-3-yl)-1,3-dioxoisoindolin-4-yl)piperidin-3-yl)-N-(2-((R)-1-methylpyrrolidin-2-yl)-1H-pyrrolo[3,2-c]pyridin-6-yl)butanamide] |  | C (Category C: 25% ≤ C < 50% degradation) | C (Category C: 25% ≤ C < 50% degradation) |
| CN1CCC[C@@H]1c1cc2cnc(NC(=O)c3ccc(N4CCC(C5CCN(c6cccc7c6CN(C6CCC(=O)NC6=O)C7=O)CC5)CC4)nc3)cc2[nH]1 (stereo partly drawn) [Example 75, 6-(1'-(2-(2,6-dioxopiperidin-3-yl)-1-oxoisoindolin-4-yl)-[4,4'-bipiperidin]-1-yl)-N-(2-((R)-1-methylpyrrolidin-2-yl)-1H-pyrrolo[3,2-c]pyridin-6-yl)nicotinamide] | A (Category A: A ≥ 75% degradation) | A (Category A: A ≥ 75% degradation) | A (Category A: A ≥ 75% degradation) |
| CN1CCC[C@@H]1c1cc2cnc(NC(=O)c3ccc(C4CCN(c5cccc6c5C(=O)N(C5CCC(=O)NC5=O)C6=O)CC4)cc3)cc2[nH]1 (stereo partly drawn) [Example 15, 4-(1-(2-(2,6-dioxopiperidin-3-yl)-1,3-dioxoisoindolin-4-yl)piperidin-4-yl)-N-(2-((R)-1-methylpyrrolidin-2-yl)-1H-pyrrolo[3,2-c]pyridin-6-yl)benzamide] | B (Category B: 50% ≤ B < 75% degradation) | A (Category A: A ≥ 75% degradation) | B (Category B: 50% ≤ B < 75% degradation) |
| CN1CCC[C@@H]1c1cc2cnc(NC(=O)c3ccc(N4CCC(c5ccc(-c6cccc7c6CN(C6CCC(=O)NC6=O)C7=O)cc5)CC4)nc3)cc2[nH]1 (stereo partly drawn) [Example 67, 6-(4-(4-(2-(2,6-dioxopiperidin-3-yl)-1-oxoisoindolin-4-yl)phenyl)piperidin-1-yl)-N-(2-((R)-1-methylpyrrolidin-2-yl)-1H-pyrrolo[3,2-c]pyridin-6-yl)nicotinamide] | A (Category A: A ≥ 75% degradation) | A (Category A: A ≥ 75% degradation) | A (Category A: A ≥ 75% degradation) |
| CN1CCC[C@@H]1c1cc2cnc(NC(=O)c3ccc(-c4cnn(CCCC#Cc5cccc6c5CN(C5CCC(=O)NC5=O)C6=O)c4)cc3)cc2[nH]1 (stereo partly drawn) [Example 21, 4-(1-(5-(2-(2,6-dioxopiperidin-3-yl)-1-oxoisoindolin-4-yl)pent-4-yn-1-yl)-1H-pyrazol-4-yl)-N-(2-((R)-1-methylpyrrolidin-2-yl)-1H-pyrrolo[3,2-c]pyridin-6-yl)benzamide] | A (Category A: A ≥ 75% degradation) | A (Category A: A ≥ 75% degradation) | B (Category B: 50% ≤ B < 75% degradation) |
| CN1CCC[C@@H]1c1[nH]c2cc(NC(=O)c3ccc(N4CCN(CC#Cc5cccc6c5CN(C5CCC(=O)NC5=O)C6=O)CC4)nc3)ncc2c1Cl (stereo partly drawn) [Example 72, N-(3-chloro-2-((R)-1-methylpyrrolidin-2-yl)-1H-pyrrolo[3,2-c]pyridin-6-yl)-6-(4-(3-(2-(2,6-dioxopiperidin-3-yl)-1-oxoisoindolin-4-yl)prop-2-yn-1-yl)piperazin-1-yl)nicotinamide] | A (Category A: A ≥ 75% degradation) | A (Category A: A ≥ 75% degradation) | C (Category C: 25% ≤ C < 50% degradation) |
| CN1CCC[C@@H]1c1cc2cnc(NC(=O)c3cccc(CCCNc4cccc5c4C(=O)N(C4CCC(=O)NC4=O)C5=O)c3)cc2[nH]1 (stereo partly drawn) [Example 45, 3-(3-((2-(2,6-dioxopiperidin-3-yl)-1,3-dioxoisoindolin-4-yl)amino)propyl)-N-(2-((R)-1-methylpyrrolidin-2-yl)-1H-pyrrolo[3,2-c]pyridin-6-yl)benzamide] | A (Category A: A ≥ 75% degradation) | A (Category A: A ≥ 75% degradation) | A (Category A: A ≥ 75% degradation) |
| CN1CCC[C@@H]1c1cc2cnc(NC(=O)c3ccc(CCC4CCN(c5cccc6c5C(=O)N(C5CCC(=O)NC5=O)C6=O)CC4)cc3)cc2[nH]1 (stereo partly drawn) [Example 4, 4-(2-(1-(2-(2,6-dioxopiperidin-3-yl)-1,3-dioxoisoindolin-4-yl)piperidin-4-yl)ethyl)-N-(2-((R)-1-methylpyrrolidin-2-yl)-1H-pyrrolo[3,2-c]pyridin-6-yl)benzamide] | B (Category B: 50% ≤ B < 75% degradation) | A (Category A: A ≥ 75% degradation) | A (Category A: A ≥ 75% degradation) |
| CN1CCC[C@@H]1c1cc2cnc(NC(=O)c3ccc(-c4cnn(CCCC#Cc5cccc(C(=O)N[C@H]6CCC(=O)NC6=O)n5)c4)cc3)cc2[nH]1 [Example 62, N-((S)-2,6-dioxopiperidin-3-yl)-6-(5-(4-(4-((2-((R)-1-methylpyrrolidin-2-yl)-1H-pyrrolo[3,2-c]pyridin-6-yl)carbamoyl)phenyl)-1H-pyrazol-1-yl)pent-1-yn-1-yl) picolinamide] | B (Category B: 50% ≤ B < 75% degradation) | A (Category A: A ≥ 75% degradation) | B (Category B: 50% ≤ B < 75% degradation) |
| CN1CCC[C@@H]1c1cc2cnc(NC(=O)c3ccc(CCCC#Cc4cccc(N5CCC(=O)NC5=O)n4)cc3)cc2[nH]1 [Example 63, (R)-4-(5-(6-(2,4-dioxotetrahydropyrimidin-1(2H)-yl)pyridin-2-yl)pent-4-yn-1-yl)-N-(2-(1-methylpyrrolidin-2-yl)-1H-pyrrolo[3,2-c]pyridin-6-yl)benzamide] | D (Category D: D < 25% degradation) | D (Category D: D < 25% degradation) | C (Category C: 25% ≤ C < 50% degradation) |
| CN1CCC[C@@H]1c1cc2cnc(NC(=O)c3cccc(OCC#Cc4cccc5c4CN(C4CCC(=O)NC4=O)C5=O)c3)cc2[nH]1 (stereo partly drawn) [Example 58, 3-((3-(2-(2,6-dioxopiperidin-3-yl)-1-oxoisoindolin-4-yl)prop-2-yn-1-yl)oxy)-N-(2-((R)-1-methylpyrrolidin-2-yl)-1H-pyrrolo[3,2-c]pyridin-6-yl)benzamide] | B (Category B: 50% ≤ B < 75% degradation) | A (Category A: A ≥ 75% degradation) | C (Category C: 25% ≤ C < 50% degradation) |
